From US9048628B2, “Solid-state dye laser medium and process for production thereof” (KYUSHU UNIVERSITY, NATIONAL UNIVERSITY CORPORATION, priority 2011, dated 2015)

Tests used:
[1] = Maximum concentration soluble in polydimethylsiloxane (PDMS) when silicone oil was used; format: physicochemical; settings: silicone oil used as in Example 2
Excerpt: A DFB laser was produced in the same manner as in Example 1, except that a silicone oil (KF-1065, produced by Shin-Etsu Chemical Co., Ltd.) was used instead of toluene, and that the step of removing toluene was not performed.
(§1) Using the dyes indicated below, maximum concentrations at which they were soluble in polydimethylsiloxane (PDMS) were investigated in the same manners as in Examples 1 and 2.

[2] = Maximum concentration soluble in polydimethylsiloxane (PDMS) when toluene was used; format: physicochemical
Experimental: Pyrromethene 597 (PM597, produced by Exciton) as a dye was dissolved in toluene to prepare a solution of a saturated concentration (100 to 130 mmol/L). This dye solution was mixed at a mixing ratio of […] (volume ratio) with a dimethylsiloxane oligomer (SIM-360, produced by Shin-Etsu Chemical Co., Ltd.) being a polydimethylsiloxane precursor, and the mixture was stirred for 2 days for thorough uniform dispersing. Then, the dispersion was further heated at 72° C. to evaporate toluene, thus adjusting the system to a final dye concentration of 3 mmol/L.
as §1

[3] = dye unchanged, without silicone oil

| Structure (SMILES) | Behavior of dissolution in PDMS when silicone oil was used: State [1] | Dissolution in dimethylsiloxane (in words) [2, 3] | Highest concentration dissolving in dimethylsiloxane [2, 3] | Behavior of dissolution in PDMS when toluene was used: State ([2]; toluene used as in Example 1) |
| --- | --- | --- | --- | --- |
| CCC1=C(C)C2=C(C)c3c(C)c(CC)c(C)n3[B-](F)(F)[N+]2=C1C [PM567] | dissolved | – | – | – |
| CCN=c1cc2oc3cc(NCC)c(C)cc3c(-c3ccccc3C(=O)OCC)c-2cc1C.Cl [Rh6G] | lumpy→ | – | – | – |
| CC1=C(C)C(C)=[N+]2C1=C(C#N)c1c(C)c(C)c(C)n1[B-]2(F)F [PM650] | dissolved | poses difficulty in dissolving to a lower limit concentration at which laser oscillation becomes possible | – | – |
| CCCCC1=C(C)C2=C(C)c3c(C)c(CCCC)c(C)n3[B-](F)(F)[N+]2=C1C [PM580] | lumpy→ | – | – | – |
| CCC1=C(C)C2=C(COC(C)=O)c3c(C)c(CC)c(C)n3[B-](F)(F)[N+]2=C1C [PM605] | dissolved | – | – | – |
| CC1=C(S(=O)(=O)[O-])C(C)=[N+]2C1=C(C)c1c(C)c(S(=O)(=O)[O-])c(C)n1[B-]2(F)F.[Na+].[Na+] [PM556] | dispersed | – | – | – |
| CC1=C(C(C)(C)C)C(C)=[N+]2C1=C(C)c1c(C)c(C(C)(C)C)c(C)n1[B-]2(F)F [PM597] | dissolved | – | 3 mmol/L | dissolved |
